Test results taken from patent US20230365568A1, “PLK1 POLO BOX DOMAIN INHIBITORS AND METHOD OF TREATING CANCER” (The United States of America,as represented by the …, priority 2020, published 2023).
Where two headings read alike, the source gives them in different places. Marks after values point to notes of the source that are not given here. Blank lines part the entries; values can stand above or below the molecule they belong to.

Assays:
[1] = Microsomal metabolic stability, rat liver microsomes (RLM)
PBD of Plk2 = PBD of Plk2 (Homo sapiens (Human), UniProt Q9NYY3); test: Fluorescence polarization (FP)-based PBD inhibition assay, Plk2; format: binding
Chain of PBD of Plk2 (Q9NYY3 355-685): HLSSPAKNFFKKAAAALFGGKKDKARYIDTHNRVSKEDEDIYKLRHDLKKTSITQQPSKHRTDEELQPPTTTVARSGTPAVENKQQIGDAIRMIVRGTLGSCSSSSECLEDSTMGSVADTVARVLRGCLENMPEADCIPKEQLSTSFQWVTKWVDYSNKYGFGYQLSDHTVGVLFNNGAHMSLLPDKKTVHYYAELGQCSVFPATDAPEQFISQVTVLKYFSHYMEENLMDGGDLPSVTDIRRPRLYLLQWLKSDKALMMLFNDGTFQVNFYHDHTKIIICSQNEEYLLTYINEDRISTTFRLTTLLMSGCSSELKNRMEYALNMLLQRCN
Procedure: (§1) FP assays were carried out essentially as described previously (Qian, ibid). […] All experiments were performed in triplicate for each sample.
(§2) PBD Fluorescence Polarization (FP) Binding Assays for Plk1 specificity. […] All experiments were performed in triplicate for each sample.

PBD of Plk3 = PBD of Plk3 (Homo sapiens (Human), UniProt Q9H4B4); test: Fluorescence polarization (FP)-based PBD inhibition assay, Plk3; format: binding
Chain of PBD of Plk3 (Q9H4B4 335-646): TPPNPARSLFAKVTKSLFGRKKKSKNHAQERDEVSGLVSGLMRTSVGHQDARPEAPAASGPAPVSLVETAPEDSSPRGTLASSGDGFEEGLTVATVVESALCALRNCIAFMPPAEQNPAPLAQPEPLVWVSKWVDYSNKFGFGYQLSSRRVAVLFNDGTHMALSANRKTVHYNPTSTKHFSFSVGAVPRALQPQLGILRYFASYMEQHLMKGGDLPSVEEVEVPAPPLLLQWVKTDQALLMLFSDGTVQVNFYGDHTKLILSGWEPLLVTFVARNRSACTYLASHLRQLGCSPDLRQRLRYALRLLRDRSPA
Procedure: as §1, §2

[2] = Stability in mouse cytosol; format: in vitro ADME; conditions: for half-life: read-out: t1/2 Mouse cytosol
[3] = Stability in human cytosol; format: in vitro ADME; conditions: for half-life: read-out: t1/2 Human cytosol
[4] = Stability in human liver microsomes; format: in vitro ADME; conditions: for half-life: read-out: t1/2 Human LM
[5] = Stability in mouse liver microsomes; format: in vitro ADME; conditions: for half-life: read-out: t1/2 Mouse LM
Stability in rat cytosol = format: in vitro ADME; conditions: for half-life: read-out: t1/2 Rat cytosol
[6] = Stability in rat liver microsomes (Table 10); format: in vitro ADME; conditions: for half-life: read-out: t1/2 Rat LM
full-length human Plk1 = full-length human Plk1 (Homo sapiens (Human), UniProt P53350); test: ELISA-based Plk1 PBD-binding inhibition assay; conditions: Plk1 PBD; n = 3 unless noted
Chain of full-length human Plk1 (P53350 whole entry): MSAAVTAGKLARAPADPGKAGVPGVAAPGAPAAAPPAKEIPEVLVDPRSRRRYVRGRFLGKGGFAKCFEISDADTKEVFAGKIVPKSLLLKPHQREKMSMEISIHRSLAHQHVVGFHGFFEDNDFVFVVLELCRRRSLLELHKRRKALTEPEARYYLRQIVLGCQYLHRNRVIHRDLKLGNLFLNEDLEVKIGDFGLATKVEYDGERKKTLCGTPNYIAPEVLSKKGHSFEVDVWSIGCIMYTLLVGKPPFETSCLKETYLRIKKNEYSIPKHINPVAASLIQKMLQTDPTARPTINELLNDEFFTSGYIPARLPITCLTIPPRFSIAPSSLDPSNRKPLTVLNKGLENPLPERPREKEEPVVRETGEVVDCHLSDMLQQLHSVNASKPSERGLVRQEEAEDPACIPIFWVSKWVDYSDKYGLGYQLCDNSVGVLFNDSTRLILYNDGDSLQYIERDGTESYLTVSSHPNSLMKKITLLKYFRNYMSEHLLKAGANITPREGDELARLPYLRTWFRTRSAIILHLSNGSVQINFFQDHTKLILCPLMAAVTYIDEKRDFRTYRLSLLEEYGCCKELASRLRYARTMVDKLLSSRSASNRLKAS
Procedure: An ELISA-based PBD-binding inhibition assay was performed essentially as described previously. […] The wells were washed once with PBS+0.05% Tween20 (PBST) and incubated with 200 μl of PBS plus 1% BSA (blocking buffer) for 1 h to prevent non-specific binding. HEK293A lysates expressing HA-EGFP-Plk1 were prepared in a TBSN [20 mM Tris-HCl (pH 8.0), 150 mM NaCl, 0.5% NP-40, 5 mM EGTA, 2 mM MgCl2, 1.5 mM EDTA, and protease inhibitor cocktail (Roche)]+20% DMSO buffer (˜20 μg total lysates in 100 μl buffer), mixed with the indicated amount of the competitors (p-T78 peptide and its derivative compounds) for 30 min, provided onto the biotinylated peptide-coated ELISA wells, and then incubated with constant rocking for 1 h at 25° C. Following the incubation, ELISA plates were washed 5 times with PBST. To detect bound HA-EGFP-Plk1, the plates were probed for 2 h with 100 μl/well of anti-HA antibody at a concentration of 0.5 μg/ml in the blocking buffer and then washed 5 times. The plates were further probed for 1 h with 100 μl/well of HRP-conjugated secondary antibody (GE Healthcare) at a 1:1,000 dilution in the blocking buffer. The plates were washed 5 times with PBST and incubated with 100 μl/well of 3,3′,5,5′-tetramethylbenzidine solution (Sigma-Aldrich, St. Louis, MO) as substrate until a desired absorbance was reached. The reactions were stopped by the addition of 100 μl/well of stop solution (Cell Signaling Technology, Danvers, MA). The optical density (O.D.) was measured at 450 nm by using a Perkin-Elmer Enspire Multimode Plate reader (PerkinElmer, Inc., Boston, MA). Data obtained from more than three independent experiments were analyzed by GraphPad (San Diego, CA) Prism software version 7.
ELISA-based PBD-binding Inhibition Assay. […] The reaction products were measured at 450 nm by using a Perkin-Elmer Enspire Multimode Plate reader (PerkinElmer, Inc., Boston, MA). Data obtained from more than three independent experiments were analyzed by GraphPad (San Diego, CA) Prism software version 7.

[7] = test system: Plk1 localization to centrosomes and kinetochores in HeLa cells; test: Immunostaining of Plk1 localization and spindle morphology in HeLa cells; format: cell-based; conditions: for inhibition at 100 µM: Homo sapiens
Procedure: HeLa cells were cultured as recommended by the American Type Culture Collection (ATCC). Asynchronously growing cells were treated with control DMSO or the indicated concentration of 143. To reveal chromosome morphologies, cells were treated with 4′,6-diamidino-2-phenylindole (DAPI), fixed, and subjected to confocal microscopy. Immunostaining was carried out using anti-Plk1 (Santa Cruz Biotechnology, Santa Cruz, CA), anti-Cep63 (MilliporeSigma), anti-CREST (Antibodies Incorp, Davis, CA), and anti-α-tubulin (Sigma, St. Louis, MO) antibodies. Confocal images were acquired using a Zeiss LSM780 equipped with a plan-apochromat 63× (N.A. 1.4) oil-immersion objective lens, 34-channel GaAsP spectral detector (Carl Zeiss Microscopy, LLC.), and 8-bit, 0.5-μm z-steps.
(§3) To quantify fluorescence signal intensities, images were acquired under the same settings and the images obtained after the maximum-intensity projection of z-stacks were analyzed using the Zeiss ZEN v2.1 software (Carl Zeiss Microscopy, LLC). All the quantifications were performed with randomly chosen fields from at least three independent experiments. All values are given as mean±s. D. P values were calculated by unpaired t test from the mean data of each group in Graph Pad Prism (***P<0.001). The statistical details including the definitions and value of n (e.g., number of experimental replicates, cells, etc.) And standard deviations are provided herein.
To directly examine whether the observed mitotic arrest was the consequence of inhibiting Plk1 PBD function, immunostaining analysis was carried out to determine the ability of intracellular Plk1 to localize to centrosomes and kinetochores, an event that requires PBD-mediated protein-protein interaction (Lee et al., Trends Pharmacol. Sci. 36, 858-877 (2015); and Elia et al., Cell 115, 83-95 (2003)). […] A short treatment time (i.e., 2 h), which was intended to minimize a potential indirect effect of these inhibitors, was sufficient to delocalize greater than 70% of Plk1 signals from centrosomes (marked by anti-Cep63 signals) and 90% of those from kinetochores (marked by anti-CREST signals).

[8] = In vivo mouse pharmacokinetics, intraperitoneal; conditions: mice
Procedure: The National Cancer Institute Animal Care and Use Committee approved all animal experiments conducted in this study.
In the in vivo mouse pharmacokinetics study, 6-8-week-old male C57BL/6 mice were selected for metabolite profiling. In brief, 200 μL/20 g mice of WA (20 mg/kg dissolved in 5% DMSO and 5% Tween 80-contained saline) was administered intraperitoneally to mice. Control mice were treated with saline containing 5% DMSO and 5% Tween 80 alone. […] Blood samples were collected by retro-orbital bleeding at 4 h postdose. After centrifugation for 10 min at 14 000×g, serum was obtained and prepared by mixing 20 μL serum with 180 μL 50% aqueous acetonitrile. After centrifugation at 14 000×g for 20 min, a 5 μL aliquot of the supernatants was injected into a Waters UPLC-ESI-QTOFMS system (Waters Corporation, Milford, MA).

[9] = In vitro stability in mice (mouse liver microsome assay); format: in vitro ADME; conditions: liver microsomes, pH 7.4, read-out: t1/2 in vitro
Procedure: The reaction was stopped by an aliquot of 200 μL of ice-cold acetonitrile after 60 min. After centrifugation at 14 000×g for 10 min, a 5 μL aliquot of the supernatant was injected into a UHPLC-[…]. […] A trace amount of the subsequent glucuronide of the demethylated metabolite was also seen in the serum, as it could be promptly excreted from the liver to the bile, once generated, and can then undergo enterohepatic circulation through which the demethylated product is reabsorbed to the circulation. This could also serve as an explanation for the increased demethylated metabolite at the last time point.

HeLa cells = test: Mitotic arrest and antiproliferation in HeLa cells (DAPI staining, cell counts); format: cell-based; conditions: for induction of mitotic arrest (rounded cells with apoptotic or aberrant chromosome morphologies): 100 μM
Procedure: HeLa cells were cultured as recommended by the American Type Culture Collection (ATCC). […] Immunostaining was carried out using anti-Plk1 (Santa Cruz Biotechnology, Santa Cruz, CA), anti-Cep63 (MilliporeSigma), anti-CREST (Antibodies Incorp, Davis, CA), and anti-α-tubulin (Sigma, St. Louis, MO) antibodies.
as §3

[10] = test system: multiple myeloma-derived L363 cells; test: MTS cell proliferation assay in L363 cells; format: cell-based; conditions: 48 h treatment, read-out: Cell efficacy, GI50 ± sd
Procedure: MTS Assay. […] 96™ AQueous One Solution Cell Proliferation Assay (MTS) kit (Promega, WI). Briefly, asynchronously growing L363 cells cultured in a 96-well plate were treated with the indicated compounds for 48 h.

PBD of Plk1 = PBD of Plk1 (Homo sapiens (Human), UniProt P53350); test: Fluorescence polarization (FP)-based PBD inhibition assay, Plk1; format: binding
Chain of PBD of Plk1 (P53350 326-603): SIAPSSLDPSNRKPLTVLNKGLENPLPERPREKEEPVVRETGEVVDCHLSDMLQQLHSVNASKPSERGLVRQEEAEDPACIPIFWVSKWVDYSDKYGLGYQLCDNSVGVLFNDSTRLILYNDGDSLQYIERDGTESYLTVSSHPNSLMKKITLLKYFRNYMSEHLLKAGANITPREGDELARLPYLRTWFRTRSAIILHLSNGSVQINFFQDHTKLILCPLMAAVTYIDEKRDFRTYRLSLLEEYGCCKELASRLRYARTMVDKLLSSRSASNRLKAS
Procedure: as §1, §2

Molecule: CCCn1c(=O)c2ccccc2n2c(SC)nnc12 [compound 143, 1-(methylthio)-4-propyl-[1,2,4]triazolo[4,3-a]quinazolin-5(4H)-one]
half-life [2]: > 2 h | half-life [3]: > 2 h | half-life [4]: 0.28 h | half-life [5]: 0.0628 h | IC50 (full-length human Plk1): > 50 µM | half-life (Stability in rat cytosol): > 2 h | spindle bipolarity ([7]; 100 μM): significantly compromised | inhibition at 100 µM ([7]; 100 μM, read-out: inhibition of Plk1 localization to centrosomes): ~20% | inhibition at 100 µM ([7]; 100 μM, read-out: inhibition of Plk1 localization to kinetochores): ~50% | half-life [6]: 0.157 h | half-life ([8]; male, C57BL/6, mouse, serum, ip, 20 mg/kg, in vivo, intraperitoneal, read-out: t1/2 in vivo): 0.479 ± 0.138 h | metabolites in serum ([8]; ≥15 min post-injection): both the hydroxylated and demethylated products were detected in the serum | half-life at 20 µM [9]: 0.189 ± 0.0582 h

Molecule: CCCn1c(=O)c2cc(F)ccc2n2c(=S)[nH]nc12 [compound 64, 7-fluoro-4-propyl-1-thioxo-2,4-dihydro-[1,2,4]triazolo[4,3-a]quinazolin-5(1H)-one]
induction of mitotic arrest (rounded cells with apoptotic or aberrant chromosome morphologies) (HeLa cells): lacked a detectable level of cellular response | half-life [2]: > 2 h | half-life [3]: > 2 h | half-life [4]: > 2 h | half-life [5]: > 2 h | t1/2 (min, RLM) ([1]; rat liver microsomes): >30 min | Solub. (Aqueous solubility; aqueous solubility): >28 µg/mL | half-life (Stability in rat cytosol): > 2 h | PAMPA (PAMPA permeability): 195 ×10⁻⁶ cm/s | half-life [6]: 2 h

Molecule: CCCn1c(=O)c2ccccc2n2c(=S)[nH]nc12 [compound 21, 4-propyl-1-thioxo-2,4-dihydro-[1,2,4]triazolo[4,3-a]quinazolin-5(1H)-one]
induction of mitotic arrest (rounded cells with apoptotic or aberrant chromosome morphologies) (HeLa cells): lacked a detectable level of cellular response | half-life [2]: > 2 h | half-life [3]: > 2 h | half-life [4]: > 2 h | half-life [5]: > 2 h | IC50 (full-length human Plk1): 1.03 ± 0.08 µM | half-life ([1]; rat liver microsomes): > 0.5 h | Solub. (Aqueous solubility; aqueous solubility): 21.3 µg/mL | half-life (Stability in rat cytosol): > 2 h | half-life [6]: > 2 h

Molecule: PLHST [6b]
activity in FP-based assay (PBD of Plk1): no detectable activity

The next lines start with results.

t1/2 (min, RLM) ([1]; rat liver microsomes): >30 min | solubility (Aqueous solubility): moderate to good solubility | Solub. (Aqueous solubility; aqueous solubility): 16.2 µg/mL | PAMPA: 46.0 ×10⁻⁶ cm/s
Molecule: O=c1c2cc(F)ccc2n2c(=S)[nH]nc2n1CC1CC1 [compound 79]
inhibition of Plk2 PBD, FP assay (PBD of Plk2): failed to exhibit any detectable level of inhibition | inhibition of Plk3 PBD, FP assay (PBD of Plk3): failed to exhibit any detectable level of inhibition

t1/2 Mouse cytosol [2]: >2 h | t1/2 Human cytosol [3]: >2 h | t1/2 Human LM [4]: >2 h | t1/2 Mouse LM [5]: >2 h | t1/2 (min, RLM) ([1]; Free base): >30^c >30^d min | t1/2 (min, RLM) ([1]; TFA salt): >30^c >30^d min | Solub. (Aqueous solubility; Free base): 27 µg/mL | Solub. (Aqueous solubility; TFA salt): > 43 µg/mL | t1/2 Rat cytosol (Stability in rat cytosol): >2 h | t1/2 Rat LM [6]: 1.7728 h
Molecule: NCCCn1c(=O)c2cc(F)ccc2n2c(=S)[nH]nc12 [compound 68]

t1/2 (min, RLM) ([1]; rat liver microsomes): >30 min | Solub. (Aqueous solubility; aqueous solubility): >53 µg/mL | GI50 [10]: 4.1 µM
Molecule: CS(=O)(=O)NCCn1c(=O)c2cc(F)ccc2n2c(=S)[nH]nc12 [compound 75]
population of rounded cells with mitotically arrested or apoptotic chromosome morphologies (HeLa cells; 25 μM, 12 h): approximately 60% | Plk1 signals delocalized from centrosomes ([7]; 25 μM, 2 h): greater than 70% | Plk1 signals delocalized from kinetochores ([7]; 25 μM, 2 h): > 90% | effect on Plk1 localization ([7]; 25 μM, 2 h): greatly diminished Plk1 signal intensities at both centrosomes and kinetochores

half-life at 20 µM [9]: 0.363 ± 0.101 h
Molecule: CCCn1c(=O)c2cccc(F)c2n2c(SC)nnc12 [compound 145, 9-fluoro-1-(methylthio)-4-propyl-[1,2,4]triazolo[4,3-a]quinazolin-5(4H)-one]

half-life [2]: > 2 h | half-life [3]: > 2 h | half-life [4]: 0.241 h | half-life [5]: 0.176 h | half-life (Stability in rat cytosol): > 2 h | half-life [6]: 0.439 h
Molecule: CCCn1c(=O)c2cc(F)ccc2n2c(SC)nnc12 [compound 144, 7-fluoro-1-(methylthio)-4-propyl-[1,2,4]triazolo[4,3-a]quinazolin-5(4H)-one]
induction of mitotic arrest (rounded cells with apoptotic or aberrant chromosome morphologies) (HeLa cells): induced mitotic arrest but at a somewhat reduced level

t1/2 Mouse cytosol [2]: >2 h | t1/2 Human cytosol [3]: >2 h | t1/2 Human LM [4]: 0.8472 h | t1/2 Mouse LM [5]: 1.7515 h | t1/2 (min, RLM) ([1]; rat liver microsomes): >30 min | Solub. (Aqueous solubility; aqueous solubility): 13.2 µg/mL | t1/2 Rat cytosol (Stability in rat cytosol): >2 h | t1/2 Rat LM [6]: >2 h | PAMPA: 188 ×10⁻⁶ cm/s
Molecule: C[C@H]1C[C@@H]1n1c(=O)c2cc(F)ccc2n2c(=S)[nH]nc12 [compound 80]
